The values below come from US20080311103A1, “Anti-Inflammatory Peptides and Methods of Use Thereof” (YEDA RESEARCH AND DEVELOPMENT CO. LTD. at THE WEIZMANN …, priority 2004, published 2008).

The subject of assay [1] is anti-CD3 antibody induced TNFα secretion from T cells. As to the kind of experiment: TNFα secretion by anti-CD3 activated T cells. It counts as cell-based, human. Particulars: peptide 100 ng/ml; 24 hours; ELISA; FIG. 7A. The protocol: (§1) Human T cells were purified and maintained in culture (RPMI containing 10% FCS, 1% Pyruvate, 1% glutamine, 1% antibiotics, 7.5% CO2, humidified atmosphere) for 15 hr before they were transferred to RPMI and activated (2 hr, 37° C.) with the indicated concentrations of the peptides. The cells were then plated (1.5×10^6 cells/0.5 ml/well) in 24 wells plates (non-tissue culture grade) precoated with anti-CD3 mAb in order to stimulate the cells to secrete cytokines. After 24 hours, the supernatants were collected and their cytokine content (TNFα and IFNγ) was determined by ELISA using anti-IFNγ and anti TNFα mAb (Pharmingen; San Diego, Calif.) according to the manufacturer's instructions.

A further assay has as its system NF-κB. As to the kind of experiment: Nuclear translocation of NF-κB in T cells (Western blot). It counts as cell-based. To be noted: peptide 100 ng/ml for 2 hours, then anti-CD3 mAb 24 hr; human T cells. The text has this:
To address the modulatory role of the wound fluid peptides on the signal transduction cascade leading to regulation of T-cell secretion of TNF-α(and IFN-γ, the nuclear translocation of NF-κB was detected by probing nuclear and cytoplasmic T-cell extracts using mAb specific for the p65 subunit of NF-κB. The nuclear protein Lamin B was used as continuatively expressed control protein for the quantification of protein amounts.
Human T cells. T cells were purified from the peripheral blood of healthy human donors (Blood Bank; Tel-Hashomer, Israel). The whole blood was incubated (20 min, 22° C.) with RosetteSep™ human T-cell enrichment cocktail (StemCell Technologies, Vancouver, BC, Canada). The remaining unsedimented cells were then loaded onto Lymphocyte Separation Medium (ICN Biomedicals; Belgium), isolated by density centrifugation, and washed with PBS. The purified cells (>95% CD3^+ T cells) so obtained were cultured in RPMI containing antibiotics and 10% heat-inactivated FCS. Western blot analysis of T-cell nuclear extracts. Purified T cells (5×10^6) were preincubated with the peptides (100 ng/ml) for 2 hours (37° C. in a 7% CO2, humidified atmosphere). The cells were then replated in 24-well plates pre-coated with anti-CD3 mAb for 24 hr (37° C. in a 7% CO2, humidified atmosphere). T cells were lysed in 10 mM HEPES, 1.5 mM MgCl2, 1 mM dithiothreitol (DTT), 1 mM PMSF, 0.5% Nonidet P-40. The lysates were incubated on ice for 10 min and centrifuged at 2000 rpm for 10 min at 4° C. The supernatants (cytoplasmic extracts) were transferred and the pellet (nuclei) was suspended in buffer containing 30 mM HEPES, 450 mM NaCl, 25% Glycerol, 0.5 mM EDTA, 6 mM DTT, 12 mM MgCl2 1 mM PMSF, 10 μg/ml leupeptin, 10 μg/ml pepstatin, 1% phosphatase inhibitor cocktail, and the suspension was incubated on ice for 30 min. The lysates were cleared by centrifugation (30 min, 14×10^3 rpm, 4° C.), and the resulting supernatants analyzed for protein content. […]

Assay [2] has as its system lymph node cells of oxazalone-sensitized mice transferred to syngeneic recipient mice. As to the kind of experiment: Adoptive transfer DTH assay. Particulars: lymph node cells incubated 20 hours with peptide (10 rig/ml), injected i.v. to recipient mice; ear swelling after 24 hours. It counts as in vivo, mouse. The method, then: Female inbred BALB/c mice (The Jackson Laboratory, Bar Harbor, Me.) were sensitized on the shaved abdominal skin with 2% oxazalone (100 μl) dissolved in acetone/olive oil [4:1 (vol/vol)]. Two donor mice were sensitized for one recipient mouse. On day 5, lymph nodes were removed and single-cell suspensions of lymph node cells were prepared. Lymph node cells were incubated (20 hours) with either peptide No. 3 or peptide No. 5 (10 rig/ml) in RPMI 1640 containing 10% FCS. After the incubation, the cells were washed, resuspended with PBS and injected intravenously (40 million cells per mouse) to syngeneic recipient mice. The mice were immediately challenged with 0.5% oxazalone in acetone/olive oil (10 μl given topically to each side of the ear) to elicit DTH reactions. The increment of ear swelling was measured after 24 hours.

The next assay has as its system Jurkat and THP-1 cells. Kind of assay: TNFα secretion by PMA/PHA induced Jurkat and THP-1 cells. Format: cell-based, human. Particulars: peptide 1 μg/ml; 48 hours; ELISA. The method, then:
Jurkat cells human T cell lymphoma line) (2×10^6 cells/ml) cultured in RPMI-1640 supplemented with 10% FCS were activated with PMA (50 ng/ml) and phytohaemagglutinin PHA (4 µg/ml) for 6 hours at 37° C. (7.5% CO2-humidified atmosphere). Thereafter, the cells were washed, plated on 24-well plates (10^6 cells/well in 0.5 ml), and incubated (1 hour at 37° C., 7.5% CO2-humidified atmosphere) with the indicated concentrations of peptides 1-5. Following the incubation, THP-1 cells (human monocytic cell line derived from a patient with acute monocytic leukaemia; 1.25×10^5 cells/0.5 ml/well) were added to the wells. After 48 hours, the supernatants were collected and their TNF[…] content was determined by ELISA using anti TNF[…] mAb (Pharmingen; San Diego, Calif.) according to the manufacturer's instructions.

In assay [3] the test system is anti-CD3 antibody induced IFNγ secretion from T cells. As to the kind of experiment: IFNγ secretion by anti-CD3 activated T cells. More on the design: concentration or dose not given beside the values. Format: cell-based, human. To be noted: 24 hours; ELISA; FIG. 7B. The method, then:
as §1

Another assay has as its system T cells. Kind of assay: Chemotaxis assay: T cell migration toward SDF-1α. Particulars: concentration range 10-1000 ng/ml; SDF-1α 250 ng/ml; 3 hr. Format: cell-based. The method, then: The migration of ^51-[Cr]-labeled T cells was examined in […] Transwell chemotaxis apparatus (6.5-mm diameter; Corning, N.Y.), consisting of two compartments separated by polycarbonate filters (5 μm pore size) pretreated (1 hr, 37° C.) with FN (25 μg/ml). ^51-[Cr]-labeled T cells (2×10^5 in 100 μl of RPMI containing 0.1% BSA and antibiotics), which were pre-incubated with the indicated concentrations of peptides (30 min, 37° C.), were added to the upper chambers. The bottom chambers contained 0.6 ml of the same media, with or without human Stromal cell-Derived Factor-1α (SDF-1α; 250 ng/ml). After incubation at 37° C. for 3 hr (7.5% CO2-humidified atmosphere), cells that had transmigrated into the lower wells were collected, centrifuged, and lysed (in 100 μl of distilled water containing 1 M NaOH and 0.1% Triton X-100), and the radioactivity in the resulting supernatants was determined with a γ-counter. The percentage (±SD) of cell migration was calculated as the radioactivity counts in the lysates of the lower chambers (representative of the migrating cells) divided by the total counts (representative of 2×10^5 cells).

For the sequence “WDNLEKETEGL [peptide No. 3, residues 96-106 of Apo A-I; identified in wound fluids, then synthesized]”, in assay [1], the “inhibition of anti-CD3 antibody induced TNFα secretion from T cells” value was 50%. Moreover, the “NF-κB translocation to the nucleus” value in the assay on NF-κB is “significant down-regulation”. The “inhibition of adoptive transfer DTH response” value in assay [2] is reported as 80%. Further, the “inhibition of TNFα secretion by Jurkat and THP-1 cells compared to PMA/PHA alone” value with Jurkat and THP-1 cells is on record as 50%. In addition, the “inhibition of anti-CD3 antibody induced IFNγ secretion from T cells” value in assay [3] is listed as 65%. Also, the “inhibition of T cell transmigration toward SDF-1α” value with T cells is “did not show a significant inhibition”.
